Reference: patent US8802700B2 (Vertex Pharmaceuticals Incorporated, priority 2010, dated 2014)

Target: T1, ΔF508-CFTR (Homo sapiens, UniProt P13569, DEL508-508)
T1 construct: expressed in transfected cells
Experiment: Membrane potential optical assay (FRET voltage-sensor dyes, VIPR), identification of potentiator compounds
Assay type: cell-based
Settings: Table 3; assay not given
Excerpt: The optical membrane potential assay utilized voltage-sensitive FRET sensors described by Gonzalez and Tsien (See Gonzalez, J. E. and R. Y. Tsien (1995) “Voltage sensing by fluorescence resonance energy transfer in single cells” Biophys J 69(4): 1272-80, and Gonzalez, J. E. and R. Y. Tsien (1997) “Improved indicators of cell membrane potential that use fluorescence resonance energy transfer” Chem Biol 4(4): 269-77) in combination with instrumentation for measuring fluorescence changes such as the Voltage/Ion Probe Reader (VIPR) (See […]. Oades, et al. (1999) “Cell-based assays and instrumentation for screening ion-channel targets” Drug Discov Today 4(9): 431-439). These voltage sensitive assays are based on the change in fluorescence resonant energy transfer (FRET) between the membrane-soluble, voltage-sensitive dye, DiSBAC2(3), and a fluorescent phospholipid, CC2-DMPE, which is attached to the outer leaflet of the plasma membrane and acts as a FRET donor. Changes in membrane potential (Vm) cause the negatively charged DiSBAC2(3) to redistribute across the plasma membrane and the amount of energy transfer from CC2-DMPE changes accordingly. The changes in fluorescence emission were monitored using VIPRTM II, which is an integrated liquid handler and fluorescent detector designed to conduct cell-based screens in 96- or 384-well microtiter plates. To identify potentiators of ΔF508-CFTR, a double-addition HTS assay format was developed. During the first addition, a Cl^--free medium with or without test compound was added to each well. […] (in mM) NaCl 160, KCl 4.5, CaCl2 2, MgCl2 1, HEPES 10, pH 7.4 with NaOH. • Chloride-free bath solution: Chloride salts in Bath Solution #1 are substituted with gluconate salts. • CC2-DMPE: Prepared as a 10 mM stock solution in DMSO and stored at -20° C. • DiSBAC2(3): Prepared as a 10 mM stock in DMSO and stored at -20° C. NIH3T3 mouse fibroblasts stably expressing ΔF508-CFTR are used for optical measurements of membrane potential. […] For all optical assays, the cells were seeded at 30,000/well in 384-well matrigel-coated plates and cultured for 2 hrs at 37° C. before culturing at 27° C. for 24 hrs. for the potentiator assay.

T1 sequence (P13569 with tags, fused parts or gaps DEL508-508): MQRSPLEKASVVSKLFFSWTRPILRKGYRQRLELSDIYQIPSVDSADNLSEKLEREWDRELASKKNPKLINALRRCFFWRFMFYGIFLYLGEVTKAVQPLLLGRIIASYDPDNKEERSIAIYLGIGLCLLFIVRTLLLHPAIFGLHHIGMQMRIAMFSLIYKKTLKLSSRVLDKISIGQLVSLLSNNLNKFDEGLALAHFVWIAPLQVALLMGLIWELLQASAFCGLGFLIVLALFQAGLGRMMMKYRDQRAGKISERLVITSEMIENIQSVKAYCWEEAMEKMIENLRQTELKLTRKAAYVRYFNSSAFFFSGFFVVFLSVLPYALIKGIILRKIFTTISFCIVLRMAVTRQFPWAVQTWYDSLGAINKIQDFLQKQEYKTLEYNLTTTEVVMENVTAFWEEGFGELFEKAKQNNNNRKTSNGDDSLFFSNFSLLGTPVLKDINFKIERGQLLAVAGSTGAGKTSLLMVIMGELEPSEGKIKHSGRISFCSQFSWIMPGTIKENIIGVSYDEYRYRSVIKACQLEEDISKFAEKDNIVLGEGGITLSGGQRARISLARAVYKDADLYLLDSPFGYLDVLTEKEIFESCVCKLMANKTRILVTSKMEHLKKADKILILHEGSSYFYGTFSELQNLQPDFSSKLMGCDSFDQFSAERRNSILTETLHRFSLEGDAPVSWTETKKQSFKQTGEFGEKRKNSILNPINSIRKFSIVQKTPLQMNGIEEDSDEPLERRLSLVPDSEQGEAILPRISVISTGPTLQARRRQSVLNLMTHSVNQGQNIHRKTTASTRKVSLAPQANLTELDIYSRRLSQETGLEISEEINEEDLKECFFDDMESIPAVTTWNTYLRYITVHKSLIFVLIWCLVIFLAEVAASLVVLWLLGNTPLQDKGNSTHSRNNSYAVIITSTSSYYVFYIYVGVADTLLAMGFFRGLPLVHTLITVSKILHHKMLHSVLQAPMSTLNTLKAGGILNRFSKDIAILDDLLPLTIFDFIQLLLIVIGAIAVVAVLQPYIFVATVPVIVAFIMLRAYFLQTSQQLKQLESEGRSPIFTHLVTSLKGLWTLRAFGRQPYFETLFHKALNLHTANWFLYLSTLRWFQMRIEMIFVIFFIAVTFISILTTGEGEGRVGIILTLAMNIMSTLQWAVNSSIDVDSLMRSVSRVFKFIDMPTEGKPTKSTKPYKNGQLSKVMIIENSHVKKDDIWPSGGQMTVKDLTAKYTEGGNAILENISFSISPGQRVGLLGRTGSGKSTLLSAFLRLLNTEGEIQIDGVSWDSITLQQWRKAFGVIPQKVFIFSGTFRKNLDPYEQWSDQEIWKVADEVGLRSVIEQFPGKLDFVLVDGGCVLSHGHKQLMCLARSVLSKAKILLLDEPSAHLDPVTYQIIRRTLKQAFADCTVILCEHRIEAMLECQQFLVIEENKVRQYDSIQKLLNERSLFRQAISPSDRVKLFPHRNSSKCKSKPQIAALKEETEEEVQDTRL

EC50 [µM]	SMILES
< 10	CCCc1ccc(N)cc1NC(=O)c1c[nH]c2ccccc2c1=O [Compound 41, N-(5-amino-2-propyl-phenyl)-4-oxo-1H-quinoline-3-carboxamide]
10 to 25	CC(=O)N1CCCC(C)(C)c2ccc(NC(=O)c3c[nH]c4ccccc4c3=O)cc21 [Compound 109, N-(1-acetyl-2,3,4,5-tetrahydro-5,5-dimethyl-1H-benzo[b]azepin-8-yl)-1,4-dihydro-4-oxoquinoline-3-carboxamide]

Same assay, conditions: Table 3; assay not given; read-out: % Activity (% Efficacy, relative efficacy)

SMILES	Emax [%]
CCCc1ccc(N)cc1NC(=O)c1c[nH]c2ccccc2c1=O [Compound 41, N-(5-amino-2-propyl-phenyl)-4-oxo-1H-quinoline-3-carboxamide]	25 to 100
N#Cc1c[nH]c2cc(NC(=O)c3c[nH]c4ccccc4c3=O)ccc12 [Compound 339, N-(3-cyano-1H-indol-6-yl)-4-oxo-1H-quinoline-3-carboxamide]	25 to 100
O=C(Nc1cnccn1)c1c[nH]c2ccccc2c1=O [Compound 219, 4-oxo-N-pyrazin-2-yl-1H-quinoline-3-carboxamide]	< 25
Cc1ccc2[nH]cc(C(=O)Nc3cc(O)c(C4(C)CCCCC4)cc3F)c(=O)c2c1 [Compound 624, N-[2-fluoro-5-hydroxy-4-(1-methylcyclohexyl)-phenyl]-6-methyl-4-oxo-1H-quinoline-3-carboxamide]	25 to 100
O=C(Nc1ccc2c(c1)OC(F)(F)C(F)(F)O2)c1c[nH]c2ccccc2c1=O [Compound 440, N-(2,2,3,3-tetrafluoro-2,3-dihydrobenzo[b][1,4]dioxin-6-yl)-1,4-dihydro-4-oxoquinoline-3-carboxamide]	25 to 100
CCc1cc(C#N)ccc1NC(=O)c1c[nH]c2ccccc2c1=O [Compound 451, N-(4-cyano-2-ethyl-phenyl)-4-oxo-1H-quinoline-3-carboxamide]	25 to 100
COC(=O)[C@@H]1C[C@@H](OC(C)(C)C)CN1c1ccc(NC(=O)c2c[nH]c3ccccc3c2=O)c(C(F)(F)F)c1 [Compound 550, (2S,4R)-methyl 4-tert-butoxy-1-(4-(4-oxo-1,4-dihydroquinoline-3-carboxamido)-3-(trifluoromethyl)phenyl)pyrrolidine-2-carboxylate]	25 to 100
N#Cc1ccc(NC(=O)c2c[nH]c3ccccc3c2=O)cc1 [Compound 194, N-(4-cyanophenyl)-4-oxo-1H-quinoline-3-carboxamide]	< 25

More lines, now with the values ahead:

Emax [%]	SMILES
25 to 100	CC1(C)CCN(c2ccc(NC(=O)c3c[nH]c4ccccc4c3=O)c(C(F)(F)F)c2)C1 [Compound 536, N-[4-(3,3-dimethylpyrrolidin-1-yl)-2-(trifluoromethyl)phenyl]-4-oxo-1H-quinoline-3-carboxamide]
25 to 100	CC(=O)N1CCCC(C)(C)c2ccc(NC(=O)c3c[nH]c4ccccc4c3=O)cc21 [Compound 109, N-(1-acetyl-2,3,4,5-tetrahydro-5,5-dimethyl-1H-benzo[b]azepin-8-yl)-1,4-dihydro-4-oxoquinoline-3-carboxamide]
25 to 100	CC(C)(C)C(=O)Nc1ccc(NC(=O)c2c[nH]c3ccccc3c2=O)c(C(F)(F)F)c1 [Compound 556, N-[4-(2,2-dimethylpropanoylamino)-2-(trifluoromethyl)phenyl]-4-oxo-1H-quinoline-3-carboxamide]
25 to 100	CC(C)c1ccc(NC(=O)c2c[nH]c3ccccc3c2=O)cc1N(C)C [Compound 117, N-(3-dimethylamino-4-isopropyl-phenyl)-4-oxo-1H-quinoline-3-carboxamide]
25 to 100	O=C(Nc1ccc2c(c1)CCCC2)c1c[nH]c2ccccc2c1=O [Compound 375, 1,4-dihydro-N-(1,2,3,4-tetrahydronaphthalen-6-yl)-4-oxoquinoline-3-carboxamide]
< 25	COc1ccc(NC(C)=O)cc1NC(=O)c1c[nH]c2ccccc2c1=O [Compound 250, N-(5-acetylamino-2-methoxy-phenyl)-4-oxo-1H-quinoline-3-carboxamide]
25 to 100	COCCOCC(C)(C)c1ccc(NC(=O)c2c[nH]c3ccccc3c2=O)cc1O [Compound 126, N-[3-hydroxy-4-[2-(2-methoxyethoxy)-1,1-dimethyl-ethyl]-phenyl]-4-oxo-1H-quinoline-3-carboxamide]
< 25	O=C(Nc1ccc2[nH]c(=O)oc2c1)c1c[nH]c2ccccc2c1=O [Compound 152, 4-oxo-N-(2-oxo-3H-benzooxazol-6-yl)-1H-quinoline-3-carboxamide]
